Test results: patent US20160193325A1 (priority 2002, published 2016)

Test system: HCVpp
Details: 25 μM AZT before and during infection; Huh-7
Experimental: HCVpp were treated with 25 μM AZT (3′-azido-3′-deoxythymidine; Sigma-Aldrich, France) before and during infection of target cells (lane j).

Cc1cn([C@H]2C[C@H](N=[N+]=[N-])[C@@H](CO)O2)c(=O)[nH]c1=O [AZT, 3′-azido-3′-deoxythymidine]
effect on transduction: inhibited transduction
